# Measurements from patent publication US11685734B2, “ATM kinase inhibitors and compositions and methods of use thereof” (CHDI Foundation, Inc., priority 2019, dated 2023).
# How the values were obtained:
# [1] = target: Recombinant, full length human FLAG-tagged ATM (Homo sapiens (Human), UniProt Q13315); assay: ATM ELISA for p53 S15 phosphorylation; type: biochemical; settings: 0.75 nM ATM, 25 nM p53, 10 μM ATP, 30 min at 20° C.; read-out: ATM BIO IC50
# In short: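 ELISA of p53 S15 phosphorylation by 0.75 nM full-length FLAG-ATM, with 25 nM myc-p53 and 10 μM ATP in HEPES pH 7.5 with Mg/Mn, 30 min at 20° C. Reactions were EDTA-stopped, captured on anti-myc and detected with anti-pS15/HRP-TMB at 450 nm.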
# [2] = target: cellular ATM activity (Homo sapiens (Human), UniProt Q13315); assay: Inhibition of cellular ATM activity: etoposide-stimulated KAP1 phosphorylation in U20S cells; type: cell-based; settings: 100 μM etoposide, 60 min, read-out: ATM CELL IC50
# cellular ATM activity, sequence (Q13315 whole entry): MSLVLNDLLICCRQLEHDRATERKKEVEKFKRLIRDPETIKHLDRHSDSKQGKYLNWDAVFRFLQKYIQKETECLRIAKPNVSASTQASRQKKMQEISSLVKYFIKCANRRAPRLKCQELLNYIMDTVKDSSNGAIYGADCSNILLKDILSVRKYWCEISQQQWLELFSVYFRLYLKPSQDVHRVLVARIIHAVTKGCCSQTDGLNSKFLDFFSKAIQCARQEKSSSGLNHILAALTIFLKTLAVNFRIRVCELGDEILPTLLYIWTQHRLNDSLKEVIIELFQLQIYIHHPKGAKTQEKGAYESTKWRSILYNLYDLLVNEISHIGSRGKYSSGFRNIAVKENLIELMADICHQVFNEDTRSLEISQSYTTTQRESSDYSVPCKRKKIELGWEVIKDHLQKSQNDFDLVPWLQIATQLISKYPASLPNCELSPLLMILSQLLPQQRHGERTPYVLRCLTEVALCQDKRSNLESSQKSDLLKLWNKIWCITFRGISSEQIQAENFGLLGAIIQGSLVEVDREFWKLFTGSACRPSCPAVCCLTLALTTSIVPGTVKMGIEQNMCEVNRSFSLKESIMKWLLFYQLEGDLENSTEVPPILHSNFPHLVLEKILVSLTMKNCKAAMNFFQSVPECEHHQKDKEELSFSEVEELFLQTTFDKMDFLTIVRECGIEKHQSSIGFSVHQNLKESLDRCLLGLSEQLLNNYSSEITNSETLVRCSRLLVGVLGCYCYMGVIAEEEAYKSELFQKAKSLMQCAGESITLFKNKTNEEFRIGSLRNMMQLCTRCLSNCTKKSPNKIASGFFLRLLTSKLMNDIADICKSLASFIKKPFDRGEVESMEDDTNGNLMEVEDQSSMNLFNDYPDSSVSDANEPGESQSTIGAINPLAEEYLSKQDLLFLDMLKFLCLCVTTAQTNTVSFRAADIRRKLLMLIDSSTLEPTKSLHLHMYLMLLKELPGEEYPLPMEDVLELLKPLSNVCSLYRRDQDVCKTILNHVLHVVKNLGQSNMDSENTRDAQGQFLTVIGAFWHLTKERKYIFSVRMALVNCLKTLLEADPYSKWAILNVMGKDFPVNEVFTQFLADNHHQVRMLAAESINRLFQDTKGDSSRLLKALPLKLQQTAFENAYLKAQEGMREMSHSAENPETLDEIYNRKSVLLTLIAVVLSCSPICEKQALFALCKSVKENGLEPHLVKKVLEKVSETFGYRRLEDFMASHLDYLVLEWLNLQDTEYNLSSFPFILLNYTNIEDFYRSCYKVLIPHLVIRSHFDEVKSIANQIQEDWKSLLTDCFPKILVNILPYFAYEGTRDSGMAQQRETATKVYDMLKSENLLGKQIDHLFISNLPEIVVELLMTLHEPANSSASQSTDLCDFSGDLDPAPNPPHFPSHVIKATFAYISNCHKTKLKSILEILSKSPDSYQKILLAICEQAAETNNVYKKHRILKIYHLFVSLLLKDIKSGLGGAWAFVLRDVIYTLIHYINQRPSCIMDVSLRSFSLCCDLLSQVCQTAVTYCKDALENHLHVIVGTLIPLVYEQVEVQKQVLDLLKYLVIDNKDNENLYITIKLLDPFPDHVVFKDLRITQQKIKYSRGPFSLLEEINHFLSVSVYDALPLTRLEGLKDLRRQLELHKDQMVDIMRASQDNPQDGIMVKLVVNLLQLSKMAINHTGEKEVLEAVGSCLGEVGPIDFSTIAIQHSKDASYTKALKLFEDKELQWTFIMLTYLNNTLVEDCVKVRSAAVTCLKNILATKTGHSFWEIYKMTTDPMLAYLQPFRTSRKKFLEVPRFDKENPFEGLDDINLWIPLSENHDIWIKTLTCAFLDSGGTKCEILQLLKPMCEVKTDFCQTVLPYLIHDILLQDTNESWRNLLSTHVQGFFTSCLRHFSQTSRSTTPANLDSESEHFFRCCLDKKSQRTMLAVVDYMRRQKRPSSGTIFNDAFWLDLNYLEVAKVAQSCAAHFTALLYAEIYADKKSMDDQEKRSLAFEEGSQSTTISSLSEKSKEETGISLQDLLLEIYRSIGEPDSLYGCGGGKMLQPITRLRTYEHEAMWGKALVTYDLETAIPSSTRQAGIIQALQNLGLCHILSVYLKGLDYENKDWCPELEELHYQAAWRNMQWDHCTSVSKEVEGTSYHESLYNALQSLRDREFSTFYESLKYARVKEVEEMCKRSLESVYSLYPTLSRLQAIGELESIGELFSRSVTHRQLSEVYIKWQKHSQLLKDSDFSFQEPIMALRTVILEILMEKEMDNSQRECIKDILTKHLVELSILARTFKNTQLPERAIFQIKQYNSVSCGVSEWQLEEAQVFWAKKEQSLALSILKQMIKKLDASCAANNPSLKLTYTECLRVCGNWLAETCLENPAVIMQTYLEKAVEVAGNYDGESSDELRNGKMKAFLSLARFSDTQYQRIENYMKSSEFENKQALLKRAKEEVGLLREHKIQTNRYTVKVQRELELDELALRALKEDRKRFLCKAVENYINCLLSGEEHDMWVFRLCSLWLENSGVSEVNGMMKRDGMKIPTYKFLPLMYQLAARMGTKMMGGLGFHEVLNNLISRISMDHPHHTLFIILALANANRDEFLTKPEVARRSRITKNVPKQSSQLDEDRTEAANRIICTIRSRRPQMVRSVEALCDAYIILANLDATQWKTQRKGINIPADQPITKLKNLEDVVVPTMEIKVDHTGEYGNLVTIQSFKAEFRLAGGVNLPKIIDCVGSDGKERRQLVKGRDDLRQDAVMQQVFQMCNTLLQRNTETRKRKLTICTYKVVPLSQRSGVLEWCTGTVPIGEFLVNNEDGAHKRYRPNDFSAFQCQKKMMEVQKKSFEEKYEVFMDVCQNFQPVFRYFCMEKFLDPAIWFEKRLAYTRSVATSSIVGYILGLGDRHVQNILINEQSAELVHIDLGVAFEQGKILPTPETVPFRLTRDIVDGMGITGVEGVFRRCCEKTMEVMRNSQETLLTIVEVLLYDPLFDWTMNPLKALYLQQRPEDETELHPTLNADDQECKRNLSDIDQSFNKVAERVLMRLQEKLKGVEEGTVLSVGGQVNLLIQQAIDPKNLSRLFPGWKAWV
# Recombinant, full length human FLAG-tagged ATM, sequence (Q13315 whole entry): as above
SMILES,IC50 [1] [nM],IC50 [2] [nM]
"O=c1cc(N2CCOCC2)nc(N2CCC(F)(F)[C@@H]2Cc2ccccc2)[nH]1 [Example 253, (S)-2-(2-benzyl-3,3-difluoropyrrolidin-1-yl)-6-morpholinopyrimidin-4(3H)-one]",11.3,434
"O=c1cc(N2CCOCC2)nc(N2CC3(CC3)C[C@@H]2Cc2ccccc2)[nH]1 [Example 262, (S)-2-(6-benzyl-5-azaspiro[2.4]heptan-5-yl)-6-morpholinopyrimidin-4(3H)-one]",9.8,282
"COc1ccccc1C[C@H]1CC2(CC2)CN1c1nc(N2CCOCC2)cc(=O)[nH]1 [Example 264, (R)-2-(6-(2-methoxybenzyl)-5-azaspiro[2.4]heptan-5-yl)-6-morpholinopyrimidin-4(3H)-one]",5.3,350
"Cc1cc(C[C@H]2CCCN2c2nc(N3CCO[C@H](C)C3)cc(=O)[nH]2)cc(C)n1 [Example 277, 2-[(2R)-2-[(2,6-dimethyl-4-pyridyl)methyl]pyrrolidin-1-yl]-4-[(2R)-2-methylmorpholin-4-yl]-1H-pyrimidin-6-one]",57,417
"C[C@@H]1CN(c2cc(=O)[nH]c(N3CCC[C@@H]3Cc3ccc(Cl)c(Cl)c3)n2)CCO1 [Example 278, 2-[(2R)-2-[(3,4-dichlorophenyl)methyl]pyrrolidin-1-yl]-4-[(2R)-2-methylmorpholin-4-yl]-1H-pyrimidin-6-one]",89.7,969
"C[C@@H]1CN(c2cc(=O)[nH]c(N3CCCCC[C@@H]3Cc3cccs3)n2)CCO1 [Example 286, 6-((R)-2-methylmorpholino)-2-((R)-2-(thiophen-2-ylmethyl)azepan-1-yl)pyrimidin-4(3H)-one]",24.6,1020
"C[C@@H]1CN(c2cc(=O)[nH]c(N3C[C@H]4C[C@H]4[C@@H]3Cc3ccccc3)n2)CCO1 [Example 291, 2-((1R,2S,5S)-2-benzyl-3-azabicyclo[3.1.0]hexan-3-yl)-6-((R)-2-methylmorpholino)pyrimidin-4(3H)-one]",11.1,562
"C[C@@H]1CN(c2cc(=O)[nH]c(N3C[C@@H]4C[C@@H]4[C@@H]3Cc3ccccc3)n2)CCO1 [Example 292, 2-((1S,2S,5R)-2-benzyl-3-azabicyclo[3.1.0]hexan-3-yl)-6-((R)-2-methylmorpholino)pyrimidin-4(3H)-one]",5.5,1310
"C[C@@H]1CN(c2cc(=O)[nH]c(N3CCCCC[C@@H]3Cc3cccc(F)c3F)n2)CCO1 [Example 300, 2-((R)-2-(2,3-difluorobenzyl)azepan-1-yl)-6-((R)-2-methylmorpholino)pyrimidin-4(3H)-one]",93.7,586
"C[C@@H]1CN(c2cc(=O)[nH]c(N3CCCCC[C@@H]3Cc3ccc(F)cc3)n2)CCO1 [Example 304, 2-((R)-2-(4-fluorobenzyl)azepan-1-yl)-6-((R)-2-methylmorpholino)pyrimidin-4(3H)-one]",19.2,957
"C[C@@H]1CN(c2cc(=O)[nH]c(N3CCCCC[C@@H]3Cc3cccc4c3OCC4)n2)CCO1 [Example 305, 2-((R)-2-((2,3-dihydrobenzofuran-7-yl)methyl)azepan-1-yl)-6-((R)-2-methylmorpholino)pyrimidin-4(3H)-one]",39,569
"COCCOc1cccc(C[C@H]2CCCCCN2c2nc(N3CCO[C@H](C)C3)cc(=O)[nH]2)c1 [Example 308, 2-((R)-2-(3-(2-methoxyethoxy)benzyl)azepan-1-yl)-6-((R)-2-methylmorpholino)pyrimidin-4(3H)-one]",14.3,560
"COCCOc1ccc(C[C@H]2CCCCCN2c2nc(N3CCO[C@H](C)C3)cc(=O)[nH]2)cc1 [Example 309, 2-((R)-2-(4-(2-methoxyethoxy)benzyl)azepan-1-yl)-6-((R)-2-methylmorpholino)pyrimidin-4(3H)-one]",6.2,256
"C[C@@H]1CN(c2cc(=O)[nH]c(N3CCCCC[C@@H]3Cc3ccsc3)n2)CCO1 [Example 315, 6-((R)-2-methylmorpholino)-2-((R)-2-(thiophen-3-ylmethyl)azepan-1-yl)pyrimidin-4(3H)-one]",16.4,813

# Other lines, results leading:
IC50 [1] [nM],IC50 [2] [nM],SMILES
70.9,1260,"O=c1cc(N2CCOCC2)nc(N2CC[C@H](O)[C@@H]2Cc2ccccc2)[nH]1 [Example 255, 2-((2S,3S)-2-benzyl-3-hydroxypyrrolidin-1-yl)-6-morpholinopyrimidin-4(3H)-one]"
4,411,"CO[C@@H]1CCN(c2nc(N3CCOCC3)cc(=O)[nH]2)[C@H]1Cc1ccccc1 [Example 257, 2-((2S,3R)-2-benzyl-3-methoxypyrrolidin-1-yl)-6-morpholinopyrimidin-4(3H)-one]"
6.8,881,"O=c1cc(N2CCOCC2)nc(N2CC[C@@H](O)[C@@H]2Cc2ccccc2)[nH]1 [Example 258, 2-((2S,3R)-2-benzyl-3-hydroxypyrrolidin-1-yl)-6-morpholinopyrimidin-4(3H)-one]"
1.7,196,"O=c1cc(N2CCOCC2)nc(N2CC[C@@H](F)[C@@H]2Cc2ccccc2)[nH]1 [Example 259, 2-((2S,3R)-2-benzyl-3-fluoropyrrolidin-1-yl)-6-morpholinopyrimidin-4(3H)-one]"
61.3,3050,"C[C@H]1CCN(c2nc(N3CCOCC3)cc(=O)[nH]2)[C@H]1Cc1ccccc1 [Example 261, 2-((2S,3S)-2-benzyl-3-methylpyrrolidin-1-yl)-6-morpholinopyrimidin-4(3H)-one]"
7.4,818,"C[C@@H]1CN(c2cc(=O)[nH]c(N3CCCCC[C@@H]3Cc3ccccc3)n2)CCO1 [Example 270, 2-((R)-2-benzylazepan-1-yl)-6-((R)-2-methylmorpholino)pyrimidin-4(3H)-one]"
24.1,2140,"C[C@@H]1CN(c2cc(=O)[nH]c(N3CCC[C@@H]3Cc3ccccc3)n2)CCO1 [Example 271, 2-((R)-2-benzylpyrrolidin-1-yl)-6-((R)-2-methylmorpholino)pyrimidin-4(3H)-one]"
32.7,410,"Cc1ccc(C[C@H]2CCCN2c2nc(N3CCO[C@H](C)C3)cc(=O)[nH]2)cc1 [Example 274, 4-[(2R)-2-methylmorpholin-4-yl]-2-[(2R)-2-(p-tolylmethyl)pyrrolidin-1-yl]-1H-pyrimidin-6-one]"
34.9,627,"C[C@@H]1CN(c2cc(=O)[nH]c(N3CCC[C@@H]3Cc3ccc(F)cc3)n2)CCO1 [Example 281, 2-[(2R)-2-[(4-fluorophenyl)methyl]pyrrolidin-1-yl]-4-[(2R)-2-methylmorpholin-4-yl]-1H-pyrimidin-6-one]"
20.9,423,"C[C@@H]1CN(c2cc(=O)[nH]c(N3CC[C@@H](C)[C@@H]3Cc3ccccc3)n2)CCO1 [Example 294, 2-((2S,3R)-2-benzyl-3-methylpyrrolidin-1-yl)-6-((R)-2-methylmorpholino)pyrimidin-4(3H)-one]"
40.5,1850,"COc1ccccc1C[C@H]1[C@H](C)CCN1c1nc(N2CCO[C@H](C)C2)cc(=O)[nH]1 [Example 296, 2-((2S,3R)-2-(2-methoxybenzyl)-3-methylpyrrolidin-1-yl)-6-((R)-2-methylmorpholino)pyrimidin-4(3H)-one]"
44.7,1740,"C[C@H]1CCCN(c2nc(N3CCO[C@H](C)C3)cc(=O)[nH]2)[C@@H](Cc2ccccc2)C1 [Example 312, 2-((2R,4S)-2-benzyl-4-methylazepan-1-yl)-6-((R)-2-methylmorpholino)pyrimidin-4(3H)-one]"
42.3,1660,"C[C@H]1CCCN(c2nc(N3CCO[C@H](C)C3)cc(=O)[nH]2)[C@@H](Cc2ccc(F)cc2)C1 [Example 313, 2-((2R,4S)-2-(4-fluorobenzyl)-4-methylazepan-1-yl)-6-((R)-2-methylmorpholino)pyrimidin-4(3H)-one]"
46.1,857,"C[C@@H]1CN(c2cc(=O)[nH]c(N3CCCCC[C@@H]3Cc3ccccc3F)n2)CCO1 [Example 317, 2-((R)-2-(2-fluorobenzyl)azepan-1-yl)-6-((R)-2-methylmorpholino)pyrimidin-4(3H)-one]"
5.3,538,"C[C@@H]1CN(c2cc(=O)[nH]c(N3CC[C@@H](F)[C@@H]3Cc3ccccc3)n2)CCO1 [Example 319, 2-((2S,3R)-2-benzyl-3-fluoropyrrolidin-1-yl)-6-((R)-2-methylmorpholino)pyrimidin-4(3H)-one]"
33.2,2840,"C[C@@H]1CN(c2cc(=O)[nH]c(N3CCC(F)(F)[C@@H]3Cc3ccccc3)n2)CCO1 [Example 322, 2-((S)-2-benzyl-3,3-difluoropyrrolidin-1-yl)-6-((R)-2-methylmorpholino)pyrimidin-4(3H)-one]"
5.4,1680,COc1ccccc1C[C@H]1[C@@H](F)CCN1c1nc(N2CCO[C@H](C)C2)cc(=O)[nH]1 [Example 324]
23.7,528,"C[C@@H]1CN(c2cc(=O)[nH]c(N3CCC[C@@H]3Cc3ccccc3)n2)C[C@@H](C)O1 [Example 347, 2-((R)-2-benzylpyrrolidin-1-yl)-6-((2R,6R)-2,6-dimethylmorpholino)pyrimidin-4(3H)-one]"
7.5,345,"C[C@@H]1CN(c2cc(=O)[nH]c(N3CCCCC[C@@H]3Cc3ccccc3)n2)C[C@@H](C)O1 [Example 349, 2-((R)-2-benzylazepan-1-yl)-6-((2R,6R)-2,6-dimethylmorpholino)pyrimidin-4(3H)-one]"
